“And” between values parts separate entries of the source, which are not always exact repeats. Equal entries are not always repeated. Inconclusive results and toxic doses are left out.
Tested on: P388 leukemia ip, CD2F1 mice, survival T/C
Test: NCI In Vivo Anticancer Drug Screen. Data for tumor model P388 Leukemia (intraperitoneal) in CD2F1 (CDF1) mice
Conditions: endpoint: median survival time, higher = longer survival
In short: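 Mice carrying the transplanted tumor received test compound or vehicle. Survival was recorded in each group, and the value is the treated-group measurement divided by that of the vehicle-treated control group.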

[1] = dose: 25.0 mg/kg/injection, schedule: Q01DX005 (ip), vehicle: saline with Tween-80
[2] = dose: 100.0 mg/kg/injection, schedule: Q04DX003 (ip), vehicle: saline
[3] = dose: 200.0 mg/kg/injection, schedule: Q04DX003 (ip), vehicle: saline
[4] = dose: 400.0 mg/kg/injection, schedule: Q04DX003 (ip), vehicle: saline
[5] = dose: 50.0 mg/kg/injection, schedule: Q01DX005 (ip), vehicle: saline
[6] = dose: 100.0 mg/kg/injection, schedule: Q01DX005 (ip), vehicle: saline
[7] = dose: 200.0 mg/kg/injection, schedule: Q01DX005 (ip), vehicle: saline
[8] = dose: 50.0 mg/kg/injection, schedule: Q01DX009 (ip), vehicle: saline with Tween-80
[9] = dose: 100.0 mg/kg/injection, schedule: Q01DX009 (ip), vehicle: saline with Tween-80
[10] = dose: 100.0 mg/kg/injection, schedule: Q01DX001 (ip), vehicle: Klucel (hydroxypropylcellulose) (HPC)
[11] = dose: 200.0 mg/kg/injection, schedule: Q01DX001 (ip), vehicle: Klucel (hydroxypropylcellulose) (HPC)
[12] = dose: 400.0 mg/kg/injection, schedule: Q01DX001 (ip), vehicle: Klucel (hydroxypropylcellulose) (HPC)
[13] = dose: 50.0 mg/kg/injection, schedule: Q01DX009 (ip), vehicle: saline
[14] = dose: 50.0 mg/kg/injection, schedule: Q01DX005 (ip), vehicle: Klucel (hydroxypropylcellulose) (HPC)
[15] = dose: 100.0 mg/kg/injection, schedule: Q01DX005 (ip), vehicle: Klucel (hydroxypropylcellulose) (HPC)
[16] = dose: 200.0 mg/kg/injection, schedule: Q01DX009 (ip), vehicle: saline with Tween-80
[17] = dose: 50.0 mg/kg/injection, schedule: Q01DX009 (ip), vehicle: Klucel (hydroxypropylcellulose) (HPC)
[18] = dose: 100.0 mg/kg/injection, schedule: Q01DX009 (ip), vehicle: Klucel (hydroxypropylcellulose) (HPC)
[19] = dose: 200.0 mg/kg/injection, schedule: Q01DX009 (ip), vehicle: Klucel (hydroxypropylcellulose) (HPC)

## COc1cc2nc3cc([N+](=O)[O-])ccc3c(NCCNCC(C)(C)O)c2cc1OC
dose: 6.25 mg/kg/injection, schedule: Q01DX005 (ip), vehicle: saline with Tween-80
  T/C: 102 % of control and 105 % of control and 96 % of control
dose: 12.5 mg/kg/injection, schedule: Q01DX005 (ip), vehicle: saline with Tween-80
  T/C: 109 % of control and 115 % of control and 117 % of control
[1]
  T/C: 117 % of control and 118 % of control and 121 % of control

## C1=NCCN=Cc2ccccc2NCCNc2ccccc21
[2]
  T/C: 93 % of control
[3]
  T/C: 91 % of control
[4]
  T/C: 103 % of control

## Nc1ncnc2c1ccn2Cc1c(Cl)cccc1Cl
dose: 50.0 mg/kg/injection, schedule: Q01DX005 (ip), vehicle: distilled water + alcohol
  T/C: 101 % of control
dose: 100.0 mg/kg/injection, schedule: Q01DX005 (ip), vehicle: distilled water + alcohol
  T/C: 101 % of control
dose: 200.0 mg/kg/injection, schedule: Q01DX005 (ip), vehicle: distilled water + alcohol
  T/C: 98 % of control

## CCCCCCCCCCN1COC2Cc3ccccc3CC21 (stereo unspecified)
[5]
  T/C: 99 % of control
[6]
  T/C: 100 % of control
[7]
  T/C: 100 % of control

## Oc1ccc2ccccc2c1/C=N\Sc1ccccc1
[8]
  T/C: 98 % of control
[9]
  T/C: 98 % of control

## CCS(CC)=NC(=O)C(Cl)Cl
dose: 50.0 mg/kg/injection, schedule: Q01DX001 (ip), vehicle: Klucel (hydroxypropylcellulose) (HPC)
  T/C: 100 % of control and 104 % of control and 97 % of control
[10]
  T/C: 99 % of control and 100 % of control and 94 % of control
[11]
  T/C: 99 % of control and 100 % of control and 123 % of control
[12]
  T/C: 111 % of control and 95 % of control

## O=C(NCN1CCOCC1)c1ccccc1O
dose: 100.0 mg/kg/injection, schedule: Q04DX002 (ip), vehicle: saline with Tween-80
  T/C: 98 % of control
dose: 200.0 mg/kg/injection, schedule: Q04DX002 (ip), vehicle: saline with Tween-80
  T/C: 104 % of control

## Cc1ccc(C2=C(Cl)C(=O)NC2=O)s1
dose: 3.13 mg/kg/injection, schedule: Q01DX001 (ip), vehicle: saline
  T/C: 100 % of control
dose: 6.25 mg/kg/injection, schedule: Q01DX001 (ip), vehicle: saline
  T/C: 99 % of control
dose: 12.5 mg/kg/injection, schedule: Q01DX001 (ip), vehicle: saline
  T/C: 95 % of control

## CCC[CH2][Sn]([CH3])([CH2]CC[N+](C)(C)C)[O]C(C)=O (stereo unspecified)
dose: 12.5 mg/kg/injection, schedule: Q01DX009 (ip), vehicle: saline
  T/C: 105 % of control
dose: 25.0 mg/kg/injection, schedule: Q01DX009 (ip), vehicle: saline
  T/C: 106 % of control
[13]
  T/C: 100 % of control and 115 % of control

## COC(=O)C1(C#N)CC1
dose: 60.0 mg/kg/injection, schedule: Q01DX005 (ip), vehicle: saline
  T/C: 113 % of control
dose: 120.0 mg/kg/injection, schedule: Q01DX005 (ip), vehicle: saline
  T/C: 96 % of control
dose: 240.0 mg/kg/injection, schedule: Q01DX005 (ip), vehicle: saline
  T/C: 103 % of control

## COc1ccc2sc(C)cc(=O)c2c1
dose: 50.0 mg/kg/injection, schedule: Q01DX009 (ip), vehicle: saline + Tween-80 + alcohol
  T/C: 106 % of control
dose: 100.0 mg/kg/injection, schedule: Q01DX009 (ip), vehicle: saline + Tween-80 + alcohol
  T/C: 109 % of control
dose: 200.0 mg/kg/injection, schedule: Q01DX009 (ip), vehicle: saline + Tween-80 + alcohol
  T/C: 109 % of control

## O=C(CN1CCOCC1)c1c(-c2ccccc2)[nH]c2ccccc12
[2]
  T/C: 104 % of control
[3]
  T/C: 102 % of control
[4]
  T/C: 95 % of control

## CN(Cc1cnc2nc(N)nc(N)c2c1)c1ccc(C(=O)NC(CCC(=O)O)C(=O)O)cc1 (stereo unspecified)
dose: 0.25 mg/kg/injection, schedule: Q01DX005 (ip), vehicle: other
  T/C: 123 % of control
dose: 1.0 mg/kg/injection, schedule: Q01DX005 (ip), vehicle: other
  T/C: 154 % of control
dose: 2.0 mg/kg/injection, schedule: Q01DX005 (ip), vehicle: other
  T/C: 150 % of control and 170 % of control
dose: 4.0 mg/kg/injection, schedule: Q01DX005 (ip), vehicle: other
  T/C: 166 % of control and 186 % of control and 197 % of control
dose: 6.0 mg/kg/injection, schedule: Q01DX005 (ip), vehicle: other
  T/C: 197 % of control

## O=[N+]([O-])c1cc2c(cc1Br)C1C(C3C2C2(Cl)C(Cl)=C(Cl)C3(Cl)C2(Cl)Cl)C2(Cl)C(Cl)=C(Cl)C1(Cl)C2(Cl)Cl (stereo unspecified)
[13]
  T/C: 107 % of control
dose: 100.0 mg/kg/injection, schedule: Q01DX009 (ip), vehicle: saline
  T/C: 105 % of control
dose: 200.0 mg/kg/injection, schedule: Q01DX009 (ip), vehicle: saline
  T/C: 108 % of control

## O=[N+]([O-])c1ccc(Sc2ncnc3c2ncn3C2OC(CO)C(O)C2O)c2nonc12 (stereo unspecified)
dose: 12.5 mg/kg/injection, schedule: Q01DX009 (ip), vehicle: suspension in saline
  T/C: 119 % of control
dose: 50.0 mg/kg/injection, schedule: Q01DX009 (ip), vehicle: suspension in saline
  T/C: 103 % of control and 122 % of control

## Clc1nc(Cl)c2[nH]c(Cl)nc2n1
[14]
  T/C: 99 % of control
[15]
  T/C: 99 % of control
dose: 200.0 mg/kg/injection, schedule: Q01DX005 (ip), vehicle: Klucel (hydroxypropylcellulose) (HPC)
  T/C: 102 % of control

## COc1ccc(OC)c(NC(=O)Oc2c(C)cc(Cl)cc2Br)c1
[8]
  T/C: 97 % of control
[9]
  T/C: 99 % of control
[16]
  T/C: 100 % of control

## c1ccc(CNc2nc(NCc3ccccc3)c3cn[nH]c3n2)cc1
dose: 25.0 mg/kg/injection, schedule: Q01DX009 (ip), vehicle: Klucel (hydroxypropylcellulose) (HPC)
  T/C: 98 % of control
[17]
  T/C: 110 % of control
[18]
  T/C: 103 % of control
[19]
  T/C: 100 % of control

## COC(=O)/C=C/c1ccccc1-c1ccccc1/C=C/C(=O)OC
[2]
  T/C: 105 % of control
[3]
  T/C: 102 % of control
[4]
  T/C: 100 % of control

## COc1cc(CO)c(Br)c(OC)c1OC
[10]
  T/C: 100 % of control
[11]
  T/C: 100 % of control
[12]
  T/C: 106 % of control

## Cn1c(=O)c2c(=O)n3ccccc3nc2n(C)c1=O
[14]
  T/C: 104 % of control
[15]
  T/C: 96 % of control

## O=C(c1ccccc1)c1cccc(C(=O)c2ccccc2)c1
[1]
  T/C: 99 % of control
dose: 50.0 mg/kg/injection, schedule: Q01DX005 (ip), vehicle: saline with Tween-80
  T/C: 104 % of control
dose: 100.0 mg/kg/injection, schedule: Q01DX005 (ip), vehicle: saline with Tween-80
  T/C: 95 % of control
dose: 200.0 mg/kg/injection, schedule: Q01DX005 (ip), vehicle: saline with Tween-80
  T/C: 105 % of control

## O=C(SC(O)c1ccc(Cl)cc1)c1ccccc1 (stereo unspecified)
[17]
  T/C: 99 % of control
[18]
  T/C: 106 % of control
[19]
  T/C: 105 % of control

## O=NN(c1ccccc1)c1ccccc1
[8]
  T/C: 101 % of control
[9]
  T/C: 100 % of control
[16]
  T/C: 98 % of control

## COc1c2c(cc3ccc(=O)oc13)C=CC(C)(C)O2
dose: 9.75 mg/kg/injection, schedule: Q01DX005 (ip), vehicle: Klucel (hydroxypropylcellulose) (HPC)
  T/C: 100 % of control
dose: 19.5 mg/kg/injection, schedule: Q01DX005 (ip), vehicle: Klucel (hydroxypropylcellulose) (HPC)
  T/C: 89 % of control
dose: 39.0 mg/kg/injection, schedule: Q01DX005 (ip), vehicle: Klucel (hydroxypropylcellulose) (HPC)
  T/C: 100 % of control
dose: 78.0 mg/kg/injection, schedule: Q01DX005 (ip), vehicle: Klucel (hydroxypropylcellulose) (HPC)
  T/C: 89 % of control

## CCCCCC(C)[P+](c1ccccc1)(c1ccccc1)c1ccccc1 (stereo unspecified)
dose: 0.39 mg/kg/injection, schedule: Q01DX009 (ip), vehicle: saline with Tween-80
  T/C: 101 % of control
dose: 0.78 mg/kg/injection, schedule: Q01DX009 (ip), vehicle: saline with Tween-80
  T/C: 114 % of control and 120 % of control

## COc1ccc(OC)c(CCc2cc(OC)ccc2OC)c1
dose: 0.78 mg/kg/injection, schedule: Q01DX009 (ip), vehicle: DMSO
  T/C: 88 % of control
dose: 6.25 mg/kg/injection, schedule: Q01DX009 (ip), vehicle: DMSO
  T/C: 92 % of control
dose: 25.0 mg/kg/injection, schedule: Q01DX009 (ip), vehicle: DMSO
  T/C: 94 % of control
dose: 50.0 mg/kg/injection, schedule: Q01DX009 (ip), vehicle: DMSO
  T/C: 109 % of control

## CCCCc1cc2ccccc2c(OCCN(C)C)n1
[5]
  T/C: 97 % of control
[6]
  T/C: 115 % of control
[7]
  T/C: 111 % of control
